Test results: patent US8518945B2, “Pyrrolopyrazine kinase inhibitors” (Hoffmann-La Roche Inc., priority 2010, dated 2013)

What was measured:
[1] = target: T1, h-jak3(810-1124) (JAK3: Recombinant human kinase domain) (Homo sapiens, UniProt P52333); assay: Determination of IC50 of Janus Kinase (JAK) inhibition: JAK3 radioactive end-point 33P-ATP kinase assay; format: biochemical; settings: no additive; ATP 1.5 uM, peptide 50 uM, 20 minutes, room temperature; read-out: Ic50 h-jak3(810-1124)-sf9-c: no additive
T1 construct: jak3(810- 1124)-sf9-c; made in house; host or cells: Sf9
T1 sequence (P52333 810-1124): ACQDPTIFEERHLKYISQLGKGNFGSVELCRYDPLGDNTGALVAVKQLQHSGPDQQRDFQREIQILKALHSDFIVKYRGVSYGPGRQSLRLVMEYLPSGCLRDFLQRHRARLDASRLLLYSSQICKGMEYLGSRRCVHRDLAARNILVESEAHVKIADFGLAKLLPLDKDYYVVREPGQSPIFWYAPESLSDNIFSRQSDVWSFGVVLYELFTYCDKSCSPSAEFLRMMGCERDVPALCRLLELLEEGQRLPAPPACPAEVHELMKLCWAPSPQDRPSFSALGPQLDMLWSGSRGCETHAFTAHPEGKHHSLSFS

Row | SMILES | melting point [°C] | IC50 [1] [nM]
1 | Cc1nc(-c2cnc3[nH]cc(C(=O)N[C@@H](C(=O)N4CC(C#N)C4)C(C)(C)C)c3n2)cn1-c1cc(F)cc(F)c1 [Example 136, 2-[1-(3,5-Difluoro-phenyl)-2-methyl-1H-imidazol-4-yl]-5H-pyrrolo[2,3-b]pyrazine-7-carboxylic acid [(R)-1-(3-cyano-azetidine-1-carbonyl)-2,2-dimethyl-propyl]-amide] | 187 to 190 | –
2 | Cc1nc(-c2cnc3[nH]cc(C(=O)N[C@@H](C(=O)N4CC(C#N)C4)C(C)(C)C)c3n2)cn1-c1cccc(F)c1 [Example 137, 2-[1-(3-Fluorophenyl)-2-methyl-1H-imidazol-4-yl]-5H-pyrrolo[2,3-b]pyrazine-7-carboxylic acid [(R)-1-(3-cyano-azetidine-1-carbonyl)-2,2-dimethyl-propyl]-amide] | 171 to 176 | –
3 | N#CC1CN(C(=O)[C@H](NC(=O)c2c[nH]c3ncc(-c4ccc(C(F)(F)F)cc4)nc23)C2CC2)C1 [Example 142, 2-(4-Trifluoromethyl-phenyl)-5H-pyrrolo[2,3-b]pyrazine-7-carboxylic acid [(R)-2-(3-cyano-azetidin-1-yl)-1-cyclopropyl-2-oxo-ethyl]-amide] | 207 to 209 | –
4 | CC(=O)N1CCN(c2ccc(-c3cnc4[nH]cc(C(=O)N[C@@H](C(=O)N5CC(C#N)C5)C5CC5)c4n3)cc2)CC1 [Example 143, 2-[4-(4-Acetyl-piperazin-1-yl)-phenyl]-5H-pyrrolo[2,3-b]pyrazine-7-carboxylic acid [(R)-2-(3-cyano-azetidin-1-yl)-1-cyclopropyl-2-oxo-ethyl]-amide] | 185 to 188 | –
5 | CN1CCN(c2ccc(-c3cnc4[nH]cc(C(=O)N[C@@H](C(=O)N5CC(C#N)C5)C5CC5)c4n3)cc2)CC1 [Example 144, 2-[4-(4-Methyl-piperazin-1-yl)-phenyl]-5H-pyrrolo[2,3-b]pyrazine-7-carboxylic acid [(R)-2-(3-cyano-azetidin-1-yl)-1-cyclopropyl-2-oxo-ethyl]-amide] | 178 to 185 | –
6 | N#CC1CN(C(=O)[C@H](NC(=O)c2c[nH]c3ncc(-c4ccc(N5CCOCC5)cc4)nc23)C2CC2)C1 [Example 145, 2-(4-Morpholin-4-yl-phenyl)-5H-pyrrolo[2,3-b]pyrazine-7-carboxylic acid [(R)-2-(3-cyano-azetidin-1-yl)-1-cyclopropyl-2-oxo-ethyl]-amide] | 186 to 192 | –
7 | CN(C)c1ccc(-c2cnc3[nH]cc(C(=O)N[C@@H](C(=O)N4CC(C#N)C4)C4CC4)c3n2)cc1 [Example 146, 2-(4-Dimethylamino-phenyl)-5H-pyrrolo[2,3-b]pyrazine-7-carboxylic acid [(R)-2-(3-cyano-azetidin-1-yl)-1-cyclopropyl-2-oxo-ethyl]-amide] | 175 to 180 | –
8 | N#CC1CN(C(=O)[C@H](NC(=O)c2c[nH]c3ncc(-c4ccccc4)nc23)C2CC2)C1 [Example 147, 2-Phenyl-5H-pyrrolo[2,3-b]pyrazine-7-carboxylic acid [(R)-2-(3-cyano-azetidin-1-yl)-1-cyclopropyl-2-oxo-ethyl]-amide] | 200 to 202 | –

Next, values leading:

Row | melting point [°C] | IC50 [1] [nM] | SMILES
9 | 228 to 230 | 0.51 | CCn1cc(-c2cnc3[nH]cc(C(=O)N[C@@H](C(=O)N4CCC(C)(C#N)C4)C(C)(C)C)c3n2)cn1 (stereo partly drawn) [Example I-28, 2-(1-Ethyl-1H-pyrazol-4-yl)-5H-pyrrolo[2,3-b]pyrazine-7-carboxylic acid [(R)-1-(3-cyano-3-methyl-pyrrolidine-1-carbonyl)-2,2-dimethyl-propyl]-amide]
10 | 218 to 220 | 0.87 | CCn1cc(-c2cnc3[nH]cc(C(=O)N[C@@H](C(=O)N4CCCC4)C4(C)CC4)c3n2)cn1 [Example I-34, 2-(1-Ethyl-1H-pyrazol-4-yl)-5H-pyrrolo[2,3-b]pyrazine-7-carboxylic acid [(R)-1-(1-methyl-cyclopropyl)-2-oxo-2-pyrrolidin-1-yl-ethyl]-amide]
11 | 255 to 256 | 0.68 | Cc1nc(-c2cnc3[nH]cc(C(=O)N[C@@H](C(=O)N4CC(C#N)C4)C4CC4)c3n2)cn1CC(F)(F)F [Example I-165, 2-[2-Methyl-1-(2,2,2-trifluoro-ethyl)-1H-imidazol-4-yl]-5H-pyrrolo[2,3-b]pyrazine-7-carboxylic acid [(R)-2-(3-cyano-azetidin-1-yl)-1-cyclopropyl-2-oxo-ethyl]-amide]
